Reference: US12331135B2, “Anti-tyrosinase antibody for inhibiting tyrosinase and use thereof” (HAUUL BIO, priority 2019, dated 2025)

What was measured:
Assay type in all cases: cell-based, mouse
B16F10 cells [1] = assay: Melanin production inhibitory effect test; conditions: 100 ppm, absorbance 475 nm
Procedure: To determine an inhibitory effect of the TAT-α-tyrosinase scFv antibody on melanin production in cells, B16F10 cell lines were treated with the TAT-α-tyrosinase scFv antibody and then the produced intracellular melanin content was measured. B16F10 cells, which are malignant melanoma cells, were cultured at 37° C. in the CO2 incubator. Thereafter, the cells were treated with 10 ppm of the TAT-α-tyrosinase scFv antibody and 100 ppm of arbutin as a positive control, followed by further culture under the same culture conditions. After the culture, each well was washed with PBS and 130 ul of 1 N NaOH solution was added to dissolve it at 60° C. for 1 hour.

B16F10 cells [2] = assay: Cytotoxicity test (MTT); conditions: unit assumed
Procedure: In order to examine cytotoxicity of the TAT-α-tyrosinase scFv antibody, B16F10 cells, mouse-derived malignant melanoma cells, were cultured in a CO2 incubator at 37° C. After the culture, the cells were treated with the TAT-α-tyrosinase scFv antibody at different concentrations (0.1, 1, 5, 10, 50, 100 ppm), and then further cultured under the same culture conditions. After the culture, MTT{3-(4,5-Dimethylthiazol-2-yl)-2,5-Diphenyltetrazolium Bromide} solution was added and cultured. After that, the culture solution was removed, and DMSO (dimethyl sulfoxide) was added and shaken moderately.

B16F10 cells [3] = assay: Reactive oxygen species inhibitory effect test
Procedure: In order to determine the inhibitory effect of the TAT-α-tyrosinase scFv antibody on reactive oxygen species in cells, the B16F10 cell lines were treated with the TAT-α-tyrosinase scFv antibody, and then the content of intracellular reactive oxygen species was measured using fluorescence staining. B16F10 cells, which are malignant melanoma cells, were cultured in the CO2 incubator at 37° C. Thereafter, the cells were treated with 100 ppm of the TAT-α-tyrosinase scFv antibody and 100 ppm of arbutin as a positive control, and then further cultured under the same culture conditions. After the culture, 0.2 mM hydrogen peroxide was added to each well, and then cultured for 2 hours. Carboxy-H2DCF-DA was added and reaction was carried out at 37° C. for 30 minutes. After washing with PBS, fluorescence was measured with the ELISA Reader system at 475/535 nm by re-addition of PBS, and the values are shown in Table 4.

OC[C@H]1O[C@@H](Oc2ccc(O)cc2)[C@H](O)[C@@H](O)[C@@H]1O [Arbutin]
Melanin biosynthesis amount (% of control), Average (B16F10 cells [1]): 66.1 % of control | Cell viability (MTT, absorbance at 570 nm), Average (B16F10 cells [2]; 0.1 ppm): 97.6% | Cell viability (MTT, absorbance at 570 nm), Average (B16F10 cells [2]; 1 ppm): 97% | Cell viability (MTT, absorbance at 570 nm), Average (B16F10 cells [2]; 5 ppm): 83.5% | Cell viability (MTT, absorbance at 570 nm), Average (B16F10 cells [2]; 10 ppm): 89.3% | Cell viability (MTT, absorbance at 570 nm), Average (B16F10 cells [2]; 50 ppm): 82.4% | Cell viability (MTT, absorbance at 570 nm), Average (B16F10 cells [2]; 100 ppm): 57.7% | ROS (fold of control), Average (B16F10 cells [3]; 0.2 mM H2O2, 100 ppm): 1.29 fold of control | ROS (fold of control), Average (B16F10 cells [3]; non treat control (no H2O2), 100 ppm): 0.82 fold of control
